Source: patent publication US11413279B2, “Methods and compositions for the antiviral use of synthetic lysine analogs and mimetics” (priority 2017, dated 2022)
“And” between values parts separate entries of the source, which are not always exact repeats. Equal values may be shown once. Read-outs that look alike come from different tables or passages of the source.

Tests used:
[1] = system: Herpes Simplex Virus Type 1 (HSV-1); type: cell-based
Procedure: (§1) Contact time for each sample was 48±2 hours and Log10 titer reductions were generated using the input viral titer (Log10TCID50) and the output viral titer (Log10TCID50).
The plate was incubated for 48±2 hours at 36±2° C. with 5±3% CO2. The plate was then frozen at −60 to −90° C., thawed, and the contents of each well centrifuged at 2,000 RPM for 10 minutes. The supernatant from each well was collected and assayed for infectious virus.
as §1

[2] = system: Herpes Simplex Virus Type 1 (HSV-1); test: Antiviral activity of tranexamic acid/L-arginine against HSV-1; type: cell-based; conditions: for Viral Promotion (%) / Output Viral Titer (Log10TCID50) / Titer (Log10TCID50/mL) / Viral Reduction (%): contact time 48 ± 8 hours; for Log10 Titer Difference: vs input virus control average 6.39
[3] = system: Herpes Simplex Virus Type 2 (HSV-2); test: Antiviral activity of tranexamic acid/L-arginine against HSV-2; type: cell-based; conditions: contact time 48 ± 8 hours
[4] = system: recurrent outbreaks of cold sores; test: Topical treatment and prophylactic use in human subjects with recurrent cold sores; type: in vivo
[5] = system: cell medium used for HSV-1 and HSV-2; test: Cytotoxicity limit in the cell medium used for HSV-1 and HSV-2
[6] = system: Herpes Simplex Virus Type 1 (HSV-1); conditions: contact time 48 ± 8 hours
[7] = system: Herpes Simplex Virus Type 2 (HSV-2); conditions: contact time 48 ± 8 hours
[8] = 5,000 μM L-arginine alone, listed as L-arginine
[9] = 10,000 μM L-arginine alone, listed as L-arginine
[10] = tranexamic acid 0.5% (w/v), high virus inocula
[11] = tranexamic acid 0.5% (w/v), low virus inocula
[12] = tranexamic acid 0.5% (w/v), low virus inocula, listed as tranexamic acid
[13] = tranexamic acid 1.0% (w/v), high virus inocula
[14] = tranexamic acid 1.0% (w/v), high virus inocula, listed as tranexamic acid
[15] = tranexamic acid 1.0% (w/v), low virus inocula
[16] = tranexamic acid 1.0% (w/v), low virus inocula, listed as tranexamic acid
[17] = tranexamic acid 2.0% (w/v), high virus inocula
[18] = 2% (w/v) tranexamic acid alone, listed as tranexamic acid

## N=C(N)NCCC[C@H](N)C(=O)O [L-Arginine, L-arginine]
[1]; 0.5 mM L-arginine alone, vs input virus control average
  Log10 titer reduction (peak of replicates): 0.28 Log10
[1]; 2 mM L-arginine alone, vs input virus control average
  Log10 titer reduction (peak of replicates): 0.04 Log10
[1]; 5 mM L-arginine alone, vs input virus control average
  Log10 Titer Reduction: no Log10 titer reduction
[1]; 5 mM L-arginine, HSV-1, contact time 48 ± 2 hours, input viral titer 8.50, 3 replicates
  Log10 Titer Reduction: No reduction
[2]; [8]
  Viral Promotion (%): 54%
[2]; 10,000 μM L-arginine alone
  Output Viral Titer (Log10TCID50): 7.21 Log10TCID50 and 7.09 Log10TCID50 and 7.15 Log10TCID50
  Titer (Log10TCID50/mL): 7.21 ± 0.06 Log10TCID50/mL and 7.09 ± 0.09 Log10TCID50/mL and 7.15 ± 0.08 Log10TCID50/mL
  Viral Promotion (%): 85% and 80% and 83%
  Log10 Titer Difference: 0.82 Log10 and 0.70 Log10 and 0.76 Log10
[2]; [9]
  Viral Promotion (%): 85%
[2]; 25,000 μM L-arginine alone
  Viral Promotion (%): 85% and 74% and 65%
[2]; 25,000 μM L-arginine alone, listed as L-arginine
  Viral Promotion (%): 85%
[3]; 5,000 μM L-arginine alone
  Viral Promotion (%): 44% and 76%
  Viral Reduction (%): 32%
[3]; [8]
  Viral Promotion (%): 76%
[3]; [9]
  Viral Promotion (%): 76%
[3]; 25,000 μM L-arginine alone
  Viral Promotion (%): 3%
  Viral Reduction (%): 66%

## N[C@@H](Cc1c[nH]cn1)C(=O)O [L-Histidine, L-histidine]
[1]; 0.5 mM L-histidine alone, contact time 48 ± 2 hours
  Titer (Log10TCID50/mL): 8.46 ± 0.09 Log10TCID50/mL and 8.76 ± 0.06 Log10TCID50/mL and 8.76 ± 0.10 Log10TCID50/mL
[1]; 0.5 mM L-histidine alone, vs input virus control average
  Log10 titer reduction (peak of replicates): 0.04 Log10
[1]; 0.5 mM L-histidine, HSV-1, contact time 48 ± 2 hours, 3 replicates
  Output Viral Titer (Log10TCID50): 8.46 Log10TCID50 and 8.76 Log10TCID50 (2×)
[1]; 1 mM L-histidine alone, contact time 48 ± 2 hours
  Titer (Log10TCID50/mL): 8.70 ± 0.11 Log10TCID50/mL and 8.40 ± 0.11 Log10TCID50/mL
[1]; 1 mM L-histidine alone, vs input virus control average
  Log10 titer reduction (peak of replicates): 0.10 Log10
[1]; 1 mM L-histidine, HSV-1, contact time 48 ± 2 hours, 3 replicates
  Output Viral Titer (Log10TCID50): 8.76 Log10TCID50 and 8.70 Log10TCID50 and 8.40 Log10TCID50
[1]; 5 mM L-histidine alone, contact time 48 ± 2 hours
  Titer (Log10TCID50/mL): 8.52 ± 0.10 Log10TCID50/mL and 8.82 ± 0.08 Log10TCID50/mL and 8.64 ± 0.06 Log10TCID50/mL
[1]; 5 mM L-histidine alone, vs input virus control average
  Log10 Titer Reduction: no Log10 titer reduction
[1]; 5 mM L-histidine, HSV-1, contact time 48 ± 2 hours, 3 replicates
  Output Viral Titer (Log10TCID50): 8.52 Log10TCID50 and 8.82 Log10TCID50 and 8.64 Log10TCID50
[1]; 5 mM L-histidine, HSV-1, contact time 48 ± 2 hours, input viral titer 8.50, 3 replicates
  Log10 Titer Reduction: No reduction
[1]; 10 mM L-histidine alone, contact time 48 ± 2 hours
  Titer (Log10TCID50/mL): 8.70 ± 0.00 Log10TCID50/mL and 8.64 ± 0.06 Log10TCID50/mL
[1]; 10 mM L-histidine alone, vs input virus control average
  Log10 Titer Reduction: no Log10 titer reduction
[1]; 10 mM L-histidine, HSV-1, contact time 48 ± 2 hours, 3 replicates
  Output Viral Titer (Log10TCID50): 8.70 Log10TCID50 and 8.64 Log10TCID50 (2×)
[1]; 10 mM L-histidine, HSV-1, contact time 48 ± 2 hours, input viral titer 8.50, 3 replicates
  Log10 Titer Reduction: No reduction
[1]; 25 mM L-histidine alone, contact time 48 ± 2 hours
  Titer (Log10TCID50/mL): 8.64 ± 0.10 Log10TCID50/mL and 8.52 ± 0.12 Log10TCID50/mL and 8.70 ± 0.00 Log10TCID50/mL

## NC[C@H]1CC[C@H](C(=O)O)CC1 [Tranexamic Acid (TA)]
[1]; 2% (w/v) tranexamic acid, HSV-1, contact time 48 ± 2 hours, 3 replicates
  Output Viral Titer (Log10TCID50): 7.15 Log10TCID50 and 7.21 Log10TCID50 and 7.27 Log10TCID50
[1]; 2% (w/v) tranexamic acid, HSV-1, contact time 48 ± 2 hours, input viral titer 8.50, 3 replicates
  Log10 Titer Reduction: 1.35 Log10 and 1.29 Log10 and 1.23 Log10

## NC[C@H]1CC[C@H](C(=O)O)CC1 [Tranexamic Acid, tranexamic acid]
[4]; fourth subject, 10% (w/v) tranexamic acid topically a single time at onset
  outcome of cold sore outbreak: the following morning the blister was gone and the outbreak had ceased
[4]; one subject, 3 or 10% (w/v) tranexamic acid applied to face daily for approximately one year, usual experience 3 to 5 outbreaks
  cold sore outbreaks during the year: one
[4]; person, approximately 0.25 mL aqueous solution of 5% (w/v) tranexamic acid by swab, 5 times over 36 hours
  time until cold sore had healed to only a small red spot: ≤ 36 h
[4]; three human subjects, 3% (w/v) tranexamic acid topically several times a day from beginning of outbreak, usual duration about 2 weeks
  time until symptoms of the outbreak resolved: ≤ 48 h
[1]
  Titer (Log10TCID50/mL): 7.15 ± 0.08 Log10TCID50/mL and 7.21 ± 0.06 Log10TCID50/mL and 7.27 ± 0.00 Log10TCID50/mL
[1]; 2% (w/v) tranexamic acid alone, vs input virus control average
  Log10 titer reduction (peak of replicates): 1.29 Log10
[5]
  maximum concentration that could be used without cytotoxicity: 2 % (w/v)
[6]; [10]
  Output Viral Titer (Log10TCID50): 6.19 Log10TCID50 and 6.43 Log10TCID50 and 6.37 Log10TCID50
  Reduction (%): 45.9%
  Titer (Log10TCID50/mL): 6.19 ± 0.08 Log10TCID50/mL and 6.43 ± 0.13 Log10TCID50/mL and 6.37 ± 0.11 Log10TCID50/mL
[6]; [11]
  Output Viral Titer (Log10TCID50): 5.24 Log10TCID50 and 5.54 Log10TCID50
  Reduction (%): 62.9% and 90.5% and 81.0%
[6]; [12]
  Reduction (%): 90.5%
[6]; [13]
  Output Viral Titer (Log10TCID50): 6.43 Log10TCID50 and 6.61 Log10TCID50
  Titer (Log10TCID50/mL): 6.43 ± 0.12 Log10TCID50/mL and 6.61 ± 0.11 Log10TCID50/mL and 6.43 ± 0.13 Log10TCID50/mL
[6]; [14]
  Reduction (%): 5.9%
[6]; [15]
  Output Viral Titer (Log10TCID50): 4.34 Log10TCID50
  Reduction (%): 97.9% and 98.8% and 75.5%
[6]; [16]
  Reduction (%): 98.8%
[6]; [17]
  Output Viral Titer (Log10TCID50): 5.71 Log10TCID50 and 5.42 Log10TCID50
  Reduction (%): 82.1% and 90.8%
  Titer (Log10TCID50/mL): 5.71 ± 0.12 Log10TCID50/mL and 5.42 ± 0.06 Log10TCID50/mL
[6]; tranexamic acid 2.0% (w/v), high virus inocula, listed as tranexamic acid
  Reduction (%): 90.8%
[2]; 2% (w/v) tranexamic acid alone
  Output Viral Titer (Log10TCID50): 5.30 Log10TCID50 and 5.12 Log10TCID50
  Titer (Log10TCID50/mL): 5.24 ± 0.08 Log10TCID50/mL and 5.30 ± 0.10 Log10TCID50/mL and 5.12 ± 0.10 Log10TCID50/mL
  Viral Reduction (%): 93% and 92% and 95%
  Log10 Titer Difference: −1.15 Log10 and −1.09 Log10 and −1.27 Log10
[2]; [18]
  Viral Reduction (%): 95%
[3]; 2% (w/v) tranexamic acid alone
  Viral Reduction (%): 99.6% and 99.7% and 99.3%
[3]; [18]
  Viral Reduction (%): 99.7%
[7]; [10]
  Reduction (%): 52.85%
[7]; [11]
  Output Viral Titer (Log10TCID50): 5.77 Log10TCID50 and 5.71 Log10TCID50
  Reduction (%): 78.94% and 64.24% and 68.85%
  Titer (Log10TCID50/mL): 5.54 ± 0.09 Log10TCID50/mL and 5.77 ± 0.10 Log10TCID50/mL and 5.71 ± 0.08 Log10TCID50/mL
[7]; [12]
  Reduction (%): 78.94%
[7]; [13]
  Output Viral Titer (Log10TCID50): 7.62 Log10TCID50 and 7.44 Log10TCID50 and 7.38 Log10TCID50
  Reduction (%): 37.85% and 58.94% and 64.24%
  Titer (Log10TCID50/mL): 7.62 ± 0.08 Log10TCID50/mL and 7.44 ± 0.11 Log10TCID50/mL and 7.38 ± 0.10 Log10TCID50/mL
[7]; [14]
  Reduction (%): 64.24%
[7]; [15]
  Output Viral Titer (Log10TCID50): 5.60 Log10TCID50 and 5.83 Log10TCID50 and 5.89 Log10TCID50
  Reduction (%): 75.82% and 58.94% and 52.85%
  Titer (Log10TCID50/mL): 5.89 ± 0.10 Log10TCID50/mL and 5.60 ± 0.09 Log10TCID50/mL and 5.83 ± 0.08 Log10TCID50/mL
[7]; [16]
  Reduction (%): 75.82%
[7]; [17]
  Reduction (%): 99.98% and 99.85%
